Measurements as given in US20240116985A1, “STAPLED PEPTIDES AND METHODS THEREOF” (priority 2020, published 2024).
Like-named read-outs stand apart in the source and are kept apart here.

Key:
[1] = target: T1, full-length beta-Catenin (Uniprot ID P35222) (Homo sapiens, UniProt P35222); experiment: Fluorescence polarization IC50 (beta-catenin / 5FAM-TCF4 10-53 competition); assay type: binding; conditions: fluorescence polarization; read-out: beta-Catenin FP IC50
T1 construct: 10 nM full-length beta-Catenin (Uniprot ID P35222)
T1 sequence (P35222 1-781): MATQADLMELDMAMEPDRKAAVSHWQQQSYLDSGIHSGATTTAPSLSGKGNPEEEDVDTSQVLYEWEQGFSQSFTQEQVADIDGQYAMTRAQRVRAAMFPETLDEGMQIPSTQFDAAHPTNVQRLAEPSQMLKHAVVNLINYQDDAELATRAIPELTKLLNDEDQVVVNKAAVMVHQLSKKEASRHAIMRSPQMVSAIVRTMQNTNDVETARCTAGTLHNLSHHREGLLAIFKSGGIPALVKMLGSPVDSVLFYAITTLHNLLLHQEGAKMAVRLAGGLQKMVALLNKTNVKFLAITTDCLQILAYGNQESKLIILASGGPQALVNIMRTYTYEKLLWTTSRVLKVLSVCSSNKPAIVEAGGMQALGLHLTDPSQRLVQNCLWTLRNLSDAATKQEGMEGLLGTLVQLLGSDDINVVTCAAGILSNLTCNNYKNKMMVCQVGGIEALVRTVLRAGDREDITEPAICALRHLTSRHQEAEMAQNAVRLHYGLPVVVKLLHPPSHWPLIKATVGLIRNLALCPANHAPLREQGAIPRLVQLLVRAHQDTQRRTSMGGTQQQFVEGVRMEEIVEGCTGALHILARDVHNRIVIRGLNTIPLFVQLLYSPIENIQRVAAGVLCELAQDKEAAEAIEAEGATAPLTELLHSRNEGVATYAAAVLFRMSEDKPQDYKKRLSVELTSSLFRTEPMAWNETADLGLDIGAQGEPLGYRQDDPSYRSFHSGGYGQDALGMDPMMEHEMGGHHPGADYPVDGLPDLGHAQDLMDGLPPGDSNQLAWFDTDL

[2] = target: T2, beta-catenin/TCF4 engagement (Homo sapiens, UniProt P35222); experiment: Nano-BRET target engagement assay (B-cat-Halo & TCF4-Luc in HEK293 cells); assay type: cell-based; conditions: read-out: NanoBRET Abs IC50
T2 construct: expressed in transfected cells; host or cells: HEK293
T2 sequence (P35222 1-781): T1 sequence (P35222 1-781)

Row | Structure (SMILES) | IC50 [1] [nM] | IC50 [2] [nM] | IC50 ([2]; absolute IC50) [nM]
1 | CC(=O)N1CCC[C@]12CC=CCCCC1(CCCC=CCCCOC(=O)N3CC[C@@](C(=O)N[C@@H](Cc4ccccc4Cl)C(=O)N[C@@H](Cc4csc5ccccc45)C(=O)N[C@@H](CO)C(N)=O)(C3)NC(=O)[C@H](CC(C)C)NC(=O)[C@H](Cc3ccccc3)NC(=O)[C@H](C)NC(=O)[C@H](CO)NC(=O)[C@H](Cc3cccc(C(=O)O)c3)NC(=O)[C@H](CC(=O)O)NC1=O)NC(=O)[C@H](CC(C)(C)C)NC(=O)[C@H](CC(=O)O)NC2=O (stereo partly drawn) [I-1901, Ac-PL3-Asp-Npg-B5-Asp-3COOHF-Ser-Ala-Phe-Leu-PyrS2-2C1F-BztA-Ser-NH2] | 34 | 4900 | 
2 | CC(=O)N1CCC[C@]12CC=CCCCC1(CCCC=CCCCOC(=O)N3CC[C@@](C(=O)N[C@@H](Cc4ccsc4)C(=O)N[C@@H](Cc4csc5ccccc45)C(=O)N[C@@H](CCC(N)=O)C(N)=O)(C3)NC(=O)[C@H](CC(C)C)NC(=O)[C@H](Cc3ccccc3)NC(=O)[C@H](C)NC(=O)[C@H](CCCN3CCC(F)(F)CC3)NC(=O)[C@H](CC(=O)O)NC(=O)[C@H](CC(=O)O)NC1=O)NC(=O)[C@H](CC(C)(C)C)NC(=O)[C@H](CC(=O)O)NC2=O (stereo partly drawn) [I-1482, Ac-PL3-Asp-Npg-B5-Asp-Asp-F2PipNva-Ala-Phe-Leu-PyrS2-3Thi-BztA-Gln-NH2] | 7 |  | 18000
3 | CC(=O)N1CCC[C@]12CC=CCCCC1(CCCC=CCCCOC(=O)N3CC[C@@](C(=O)N[C@@H](Cc4ccsc4)C(=O)N[C@@H](Cc4csc5ccccc45)C(=O)N[C@@H](CCC(N)=O)C(N)=O)(C3)NC(=O)[C@H](CC(N)=O)NC(=O)[C@H](Cc3cccc(C(=O)O)c3)NC(=O)[C@H](C)NC(=O)[C@H](C)NC(=O)[C@H](Cc3c[nH]cn3)NC(=O)[C@H](CC(=O)O)NC1=O)NC(=O)[C@H](CC(C)(C)C)NC(=O)[C@H](CC(=O)O)NC2=O (stereo partly drawn) [I-2118, Ac-PL3-Asp-Npg-B5-Asp-His-Ala-Ala-3COOHF-Asn-PyrS2-3Thi-BztA-Gln-NH2] | 21 | > 20000 | 
4 | CC(=O)N1CCC[C@]12CC=CCCCC1(CCCC=CCCCOC(=O)N3CC[C@@](C(=O)N[C@@H](Cc4ccsc4)C(=O)N[C@@H](Cc4csc5ccccc45)C(=O)N[C@@H](CCC(N)=O)C(N)=O)(C3)NC(=O)[C@H](CC(C)C)NC(=O)[C@H](Cc3ccccc3)NC(=O)[C@H](CCCN3CCC(F)(F)CC3)NC(=O)[C@H](C)NC(=O)[C@H](CC(=O)O)NC(=O)[C@H](CC(=O)O)NC1=O)NC(=O)[C@H](CC(C)(C)C)NC(=O)[C@H](CC(=O)O)NC2=O (stereo partly drawn) [I-1502, Ac-PL3-Asp-Npg-B5-Asp-Asp-Ala-F2PipNva-Phe-Leu-PyrS2-3Thi-BztA-Gln-NH2] | 34 |  | > 20000
5 | CC(=O)N1CCC[C@]12CC=CCCCC1(CCCC=CCCCOC(=O)N3CC[C@@](C(=O)N[C@@H](Cc4ccsc4)C(=O)N[C@@H](Cc4csc5ccccc45)C(=O)N[C@@H](CCC(N)=O)C(N)=O)(C3)NC(=O)[C@H](CC(C)C)NC(=O)[C@H](Cc3ccccc3)NC(=O)[C@H](CCN3CCOCC3)NC(=O)[C@H](C)NC(=O)[C@H](CC(=O)O)NC(=O)[C@H](CC(=O)O)NC1=O)NC(=O)[C@H](CC(C)(C)C)NC(=O)[C@H](CC(=O)O)NC2=O (stereo partly drawn) [I-1504, Ac-PL3-Asp-Npg-B5-Asp-Asp-Ala-MorphAbu-Phe-Leu-PyrS2-3Thi-BztA-Gln-NH2] | 46 |  | > 20000
6 | CCCC[C@@H]1NC(=O)[C@H](Cc2ccccc2)NC(=O)[C@H](C)NC(=O)[C@H](C)NC(=O)[C@H](CC(=O)O)NC(=O)[C@H](CC(=O)O)NC(=O)C2(CCCC=CCCCOC(=O)N3CC[C@@](C(=O)N[C@@H](Cc4ccccc4)C(=O)N[C@@H](Cc4csc5ccccc45)C(=O)N[C@@H](CCC(N)=O)C(N)=O)(C3)NC1=O)CCCC=CC[C@]1(CCCN1C(C)=O)C(=O)N[C@@H](CC(=O)O)C(=O)N[C@@H](CC(C)C)C(=O)N2 (stereo partly drawn) [I-1404, Ac-PL3-Asp-Leu-B5-Asp-Asp-Ala-Ala-Phe-nLeu-PyrS2-Phe-BztA-Gln-NH2] | 113 |  | 36800
7 | CC(=O)N1CCC[C@]12CC=CCCCC1(CCCC=CCCCCCC[C@@](C)(C(=O)N[C@@H](Cc3ccccc3)C(=O)N[C@@H](Cc3csc4ccccc34)C(=O)N[C@@H](CCC(N)=O)C(N)=O)NC(=O)[C@H](CCC(N)=O)NC(=O)[C@H](Cc3ccccc3)NC(=O)[C@H](C)NC(=O)[C@H](C)NC(=O)[C@H](CCC(=O)O)NC(=O)[C@H](CC(=O)O)NC1=O)NC(=O)[C@H](CCCCN)NC(=O)[C@H](CC(=O)O)NC2=O (stereo partly drawn) [I-1552, Ac-PL3-Asp-Lys-B5-Asp-Glu-Ala-Ala-Phe-Gln-S8-Phe-BztA-Gln-NH2] | 56 |  | > 20000
8 | CCCC[C@@H]1NC(=O)[C@H](Cc2cccc(C(=O)O)c2)NC(=O)[C@H](CC(=O)O)NC(=O)C2(CCCC=CCCCOC(=O)N3CC[C@@](C(=O)N[C@@H](Cc4ccsc4)C(=O)N[C@@H](Cc4csc5ccccc45)C(=O)N[C@@H](Cc4ccccc4)C(N)=O)(C3)NC(=O)[C@H](CC(C)C)NC(=O)[C@H](Cc3ccccc3)NC(=O)[C@H](C)NC1=O)CCCC=CC[C@]1(CCCN1C(C)=O)C(=O)N[C@@H](CC(=O)O)C(=O)N[C@@H](CC(C)(C)C)C(=O)N2 (stereo partly drawn) [I-1913, Ac-PL3-Asp-Npg-B5-Asp-3COOHF-nLeu-Ala-Phe-Leu-PyrS2-3Thi-BztA-Phe-NH2] | 119 | 17500 | 

Now from value to compound:

Row | IC50 [1] [nM] | IC50 [2] [nM] | IC50 ([2]; absolute IC50) [nM] | Structure (SMILES)
9 | 47 |  | 6500 | CC(=O)N1CCC[C@]12CC=CCCCC1(CCCC=CCCCOC(=O)N3CC[C@@](C(=O)N[C@@H](Cc4ccccc4C(F)(F)F)C(=O)N[C@H](C(=O)N[C@@H](C)C(N)=O)[C@H](C)c4ccc5ccccc5c4)(C3)NC(=O)[C@H](CC(C)C)NC(=O)[C@H](Cc3ccccc3)NC(=O)[C@H](C)NC(=O)[C@H](CCC(N)=O)NC(=O)[C@H](Cc3cccc(C(=O)O)c3)NC(=O)[C@H](CC(=O)O)NC1=O)NC(=O)[C@H](CC(C)(C)C)NC(=O)[C@H](CC(=O)O)NC2=O (stereo partly drawn) [I-2463, Ac-PL3-Asp-Npg-B5-Asp-3COOHF-Gln-Ala-Phe-Leu-PyrS2-2F3MeF-RbMe2NapA-Ala-NH2]
10 | 11 |  | 3600 | CC(=O)NCCCC[C@@H]1NC(=O)[C@H](Cc2ccccc2)NC(=O)[C@H](C)NC(=O)[C@H](C)NC(=O)[C@H](Cc2cccc(C(=O)O)c2)NC(=O)[C@H](CC(=O)O)NC(=O)C2(CCCC=CCCCOC(=O)N3CC[C@@](C(=O)N[C@@H](Cc4ccccc4C(F)(F)F)C(=O)N[C@@H](Cc4csc5ccccc45)C(=O)N[C@@H](CCC(=O)N4CCOCC4)C(N)=O)(C3)NC1=O)CCCC=CC[C@]1(CCCN1C(C)=O)C(=O)N[C@@H](CC(=O)O)C(=O)N[C@@H](CC(C)(C)C)C(=O)N2 (stereo partly drawn) [I-2548, Ac-PL3-Asp-Npg-B5-Asp-3COOHF-Ala-Ala-Phe-AcLys-PyrS2-2F3MeF-BztA-MorphGln-NH2]
11 | 5 |  | 1700 | CCS(=O)(=O)N1CCN(C(=O)CC[C@@H]2NC(=O)[C@H](Cc3cccc(C(=O)O)c3)NC(=O)[C@H](CC(=O)O)NC(=O)C3(CCCC=CCCCOC(=O)N4CC[C@@](C(=O)N[C@@H](Cc5ccccc5C(F)(F)F)C(=O)N[C@@H](Cc5csc6ccccc56)C(=O)N[C@@H](C)C(N)=O)(C4)NC(=O)[C@H](CC(C)C)NC(=O)[C@H](Cc4ccccc4)NC(=O)[C@H](C)NC2=O)CCCC=CC[C@]2(CCCN2C(C)=O)C(=O)N[C@@H](CC(=O)O)C(=O)N[C@@H](CC(C)(C)C)C(=O)N3)CC1 (stereo partly drawn) [I-2321, Ac-PL3-Asp-Npg-B5-Asp-3COOHF-[EtSO2Ppz]GlnR-Ala-Phe-Leu-PyrS2-2F3MeF-BztA-Ala-NH2]
12 | 22 |  | 24300 | CC(=O)N1CCC[C@]12CC=CCCCC1(CCCC=CCCCOC(=O)N3CC[C@@](C(=O)N[C@@H](Cc4ccsc4)C(=O)N[C@H](C(=O)N[C@@H](CCC(N)=O)C(N)=O)[C@@H](C)c4ccc5ccccc5c4)(C3)NC(=O)[C@H](CC(C)C)NC(=O)[C@H](Cc3ccccc3)NC(=O)[C@H](C)NC(=O)[C@H](C)NC(=O)[C@H](Cc3cccc(C(=O)O)c3)NC(=O)[C@H](CC(=O)O)NC1=O)NC(=O)[C@H](CC(C)(C)C)NC(=O)[C@H](CC(=O)O)NC2=O (stereo partly drawn) [I-2313, Ac-PL3-Asp-Npg-B5-Asp-3COOHF-Ala-Ala-Phe-Leu-PyrS2-3Thi-SbMe2NapA-Gln-NH2]
13 | 855 | > 20000 |  | CC(=O)N1CCC[C@]12CCCCC1(CCCCCCCOC(=O)N3CC[C@@](C(=O)N[C@@H](Cc4ccsc4)C(=O)N[C@@H](Cc4csc5ccccc45)C(=O)N[C@@H](CCC(N)=O)C(N)=O)(C3)NC(=O)[C@H](CC(C)C)NC(=O)[C@H](Cc3ccccc3)NC(=O)[C@H](C)NC(=O)[C@H](C)NC(=O)[C@H](CC(=O)O)NC(=O)[C@H](CC(=O)O)NC1=O)NC(=O)[C@H](CC(C)(C)C)NC(=O)[C@H](CC(=O)O)NC2=O (stereo partly drawn) [I-2161, Ac-PL3-Asp-Npg-B3-Asp-Asp-Ala-Ala-Phe-Leu-PyrS3-3Thi-BztA-Gln-NH2]
